Assay results published in article PMC8443589, “Modelling human liver fibrosis in the context of non-alcoholic steatohepatitis using a microphysiological system” (Communications Biology, 2021).

How the values were obtained:
[1] = test system: liver MPS NASH model (PHH, KC and HSC co-cultures); test: Cue study: RNAseq transcriptomic profile, enriched pathways; format: cell-based, human; settings: GO term enrichment and cluster analysis, 14 days
Protocol: Fig. 4 Systems biology interrogation of liver MPS NASH model to determine physiologically relevant cues that promote transcriptional changes to mimic advanced NASH disease state. […]
The MPS LC12 plates consists of 12 individual bioreactors that contain pneumatically driven micro-pumps to recirculate cell culture medium through a collagen-coated scaffold. […] Microtissues were then cultured in either HEP-Lean or HEP-Fat medium, both media’s are proprietary to CN Bio Innovations Ltd. The HEP-Fat medium is a derivative of the HEP-LEAN medium and contains a mixture of saturated and unsaturated FFAs, as well as physiologically relevant quantities of insulin and sugars. […]
Prior to RNA-seq integrity and quantity of RNA were assessed by Fragment Analyzer high sensitivity RNA kit (Agilent Technologies, USA). […] Quality and quantity of libraries were assessed by Fragment Analyzer standard sensitivity NGS kit (Agilent Technologies, USA). […] The sample pools were quantified with a Qubit Fluorometer (ThermoFisher Scientific, USA) using the dsDNA HS kit (ThermoFisher Scientific, USA), further diluted and sequenced to >13 M paired reads/sample on NextSeq500 (Illumina, USA) with PE 75 base pair (bp) read length setting.
The sequencing data were demultiplexed using Illumina bcl2fastq2-v2.16. The quality of the reads was assessed using FastQC (www.bioinformatics.babraham.ac.uk/projects/fastqc). […]

[2] = test system: liver MPS NASH model (PHH, KC and HSC co-cultures); test: Cue study: albumin production (ELISA); format: cell-based, human
[3] = set-up: method as in PMID 27743502; settings: cited from earlier work

Compound	enriched pathways / gene clusters induced [1]	Albumin production [2]	Plasma protein binding [3] [%]
TGFβ: recombinant TGF beta 1 protein (Abcam), 1 ng/ml cue	induced a wide range of clusters associated with collagen formation and matrix reorganisation	reduced albumin production	–
CC[C@H]1[C@@H](O)[C@@H]2[C@H](CC[C@]3(C)[C@@H]([C@H](C)CCC(=O)O)CC[C@@H]23)[C@@]2(C)CC[C@@H](O)C[C@@H]12 [Obeticholic acid]	–	–	>99
